Laboratory results published in patent EP0330992A2, “Novel cyclobutane Derivatives, processes for their preparation and pharmaceutical compositions comprising them” (Nippon Kayaku Kabushiki Kaisha, priority 1988, dated 1989).
≈ marks a conversion by molar mass, not a printed value.

Columns and labels:
Format in all cases: cell-based
[1] = system: human cytomegalovirus (HCMV); assay: Anticytomegaloviral plaque formation inhibition in human fetal fibroblast (Test Example 2, Method 2); details: Human betaherpesvirus 5, 240 h, AO169 strain, 10 days, read-out: IC₅₀ HCMV
Procedure: An activity against human cytomegalovirus (HCMV) which was DNA virus was examined by the following method.
Anticytomegaloviral activity was determined in terms of 50% inhibitory concentration (IC₅₀) by infecting 35 mm dish having a single layer of human fetal fibroblast with 100 PFU (plaque forming unit) of cytomegalovirus (AO169 strain), adsorbing for an hour, laying thereon a medium containing the compound of each concentration supplemented with 0.5% agarose and 2% fetal calf serum, culturing at 37°C for 10 days in a 5% (v/v) carbon dioxide gas incubator and measuring formation of plaque.

[2] = system: human uterine cervical cancer HeLa S₃; assay: Growth inhibition of HeLa S3 cells, Methylene Blue staining (Test Example 5, Method 5); details: 50% growth inhibitory concentration, 72 hours, read-out: IC₅₀ HeLaS₃
Procedure: Anticancer activity against human uterine cervical cancer HeLa S₃, mouse leukemia L1210 and P388 cells was examined by the following method. HeLa S₃ cells were prepared in a concentration of 7.5 x 10³ cells/ml and inoculated on a 96 well flat bottom plate by 0.2 ml/well each. After culturing at 37°C for 24 hours in a 5% CO₂ incubator, 10 µl of the compound was added thereto followed by culturing for 72 hours. After culturing, the culture medium of each well was withdrawn and fixed with methanol. Then, 0.1 ml/well each of 0.05% Methylene Blue/10 mM-Tris-HCl (pH 8.5) solution was added to stain at room temperature for 30 minutes. After withdrawing the dyeing solution from each well using an aspirator, the well was washed 3 times with pure water. After adding 3% HCl in a ratio of 0.2 ml/well, the well was sealed and allowed to stand at room temperature for about 24 hours and the dye was then extracted from the cells. Absorbance of each well at 660 nm was measured with Dynatec microplate reader. The growth inhibition rate treated wells to the control wells were calculated according to the equation below and 50% growth inhibitory concentration (IC₅₀, µg/ml) was determined by the Litchfield method. Growth inhibition rate (%) = (1 - A₁/A₀) x 100 wherein A₁ = Absorbance of the treated group A₀ = Absorbance of the control group

[3] = system: herpes simplex virus type 1 (HSV-I); assay: Plaque formation inhibition in Vero cells (Test Example 1, Method 1); details: Human alphaherpesvirus 1, 48 hours, read-out: IC₅₀ HSV-1
Procedure: (§1) Antiviral activity against herpes simplex virus type 1 (HSV-I) and herpes simplex virus type 2 (HSV-II) which were DNA viruses was examined by the following methods.
(§2) A 6 well multiplate bearing a single layr of Vero cells (derived from African green monkey kidney cell) was infected with 100-150 PFU (plaque forming unit) of virus. After (infection) at 37°C for an hour, agar medium (Eagle's MEM medium supplemented with 1.5% agar) containing a sample of each concentration was put on the single layer followed by culturing at 37°C for 48 hours in a 5% (v/v) carbon dioxide incubator. Thereafter, formation of plaque was measured to determine 50% inhibitory concentration (IC₅₀).

[4] = system: mouse leukemia P388 cells; assay: Growth inhibition of P388 cells, cell count (Test Example 5, Method 6); details: 50% growth inhibitory concentration, 48 hours, read-out: IC₅₀ P338
Procedure: (§3) Anticancer activity against human uterine cervical cancer HeLa S₃, mouse leukemia L1210 and P388 cells was examined by the following method. P388 and L1210 cells were inoculated on a 24 well plate and the compound was added thereto followed by incubation at 37°C for 48 hours in 5% CO₂. The number of cells after the incubation was counted with a Caulter counter. The growth inhibition rate of the treated group to the control group was calculated according to the equation below and 50% growth inhibitory concentration (IC₅₀, µg/ml) was determined by the Litchfield method. Growth inhibition rate (%) = [1 - (NT-N₀)/(Nc-N₀)] x 100 wherein NT = cell count of the treated group N₀ = cell count at the onset of incubation Nc = cell count of the control group

[5] = system: mouse leukemia L1210 cells; assay: Growth inhibition of L1210 cells, cell count (Test Example 5, Method 6); details: 50% growth inhibitory concentration, 48 hours, read-out: IC₅₀ L1210
Procedure: as §3

AIDS virus (HIV) = assay: Anti-HIV activity in MT-4 cells, viral antigen by fluorescent antibody method (Test Example 4, Method 4); details: Human immunodeficiency virus 1, MT4, 96 h, read-out: IC₅₀ HIV
Procedure: Activity against AIDS virus (HIV) which was RNA virus was examined by the following method.
In an anti-HIV (human immunodeficiency virus) active 24 well tray were charged about 50,000/ml of MT-4 cells. Further […] of a solution containing a definite amount of the compound of this invention was added thereto. After culturing at 37°C for 2 hours in a 5% (v/v) carbon dioxide gas incubator, 10³-10⁴ infection units of HIV were added thereto. After culturing for 4 days, a part of the culture solution was smeared on a slide glass and fixed with acetone. Then, occurrence of viral antigen was observed by fluorescent antibody method.
As primary antibody in the fluorescent antibody method, serum from the patient with AIDS was used and FITC-labeled anti-human IgG was used as secondary antibody.

[6] = system: herpes simplex virus type 2 (HSV-II); assay: Plaque formation inhibition in Vero cells (Test Example 1, Method 1); details: Human alphaherpesvirus 2, 48 hours, read-out: IC₅₀ HSV-2
Procedure: as §1, §2

hepatitis B virus (HBV) = assay: Hepatitis B virus DNA in liver cell line HB611, Southern method (Test Example 3, Method 3); details: 360 h, HB611 cells, 15 days, HBV DNA by Southern method, read-out: IC₅₀ HBV
Procedure: Activity against hepatitis B virus (HBV) which was DNA virus was examined by the following method.
Incubated liver cell line HB611 (Proc. Natl. Acad. Sci. USA, 84 (1987), 444) capable of producing and releasing activated hepatitis B virus was cultured in modified Eagle's medium (GIBCO) at 37°C in 5% CO₂ in the presence 10% fetal calf serum, 200 µg/ml of G418 and 100 U/ml each of penicillin and streptomycin. The culture was inoculated on a 6 well plate in 5 x 10⁴ cells/well (35 mm). When 50% confluent state was achieved 1 or 2 days after, a definite quantity of this compound was added and the mixture was cultured. While exchanging with a medium containing the compound in the same concentration every 3 other days, incubation was continued for 15 days. Thereafter the medium was removed. The cells were treated with 0.5 ml of lysis buffer (10 mM Tris HCl, pH 7.8/5 mM Na₂EDTA, 1% SDS/0.1 mg/ml Pronase K) at 37°C for an hour. The resulting DNA was treated with RNase and purified by treatment with phenol and chloroform and then precipitation with ethanol.
Then, 5 µg of DNA was treated with Hind III and DNA pattern was analyzed by the Southern method using as a probe ³²P-labeled hepatitis B virus DNA.

In the case of O=c1[nH]cnc2c1ncn2[C@@H]1C[C@H](CO)[C@H]1O (racemic) [Compound 4-2, (±)-9-[(1β,2α,3β)-2-hydroxy-3-hydroxymethylcyclobutan-1-yl]hypoxanthine], the IC50 [1] is reported as 2.8 µg/mL (≈ 11.9 µM).

With Nc1nc(Cl)c2ncn([C@@H]3C[C@H](CO)[C@H]3O)c2n1 (racemic) [Compound 4-3, (±)-2-amino-6-chloro-9-[(1β,2α,3β)-2-hydroxy-3-hydroxymethylcyclobutan-1-yl]purine] the IC50 [2] was 66 µg/mL (≈ 245 µM), the IC50 [3] was 8.5 µg/mL (≈ 31.5 µM) and the IC50 [1] was 3.3 µg/mL (≈ 12.2 µM). The IC50 [4] was 12 µg/mL (≈ 44.5 µM) and the IC50 [5] was 8 µg/mL (≈ 29.7 µM).

For Nc1nc(N)c2ncn([C@@H]3C[C@H](CO)[C@H]3O)c2n1 (racemic) [Compound 4-4, (±)-2,6-diamino-9-[(1β,2α,3β)-2-hydroxy-3-hydroxymethylcyclobutan-1-yl]purine], the IC50 [2] was 21 µg/mL (≈ 83.9 µM), the IC50 [3] was 2.2 µg/mL (≈ 8.79 µM) and the IC50 [1] was 0.69 µg/mL (≈ 2.76 µM). For the same compound, the IC50 [4] was 3.4 µg/mL (≈ 13.6 µM), the IC50 (AIDS virus (HIV)) was 3 µg/mL (≈ 12 µM) and the IC50 [5] was 2.4 µg/mL (≈ 9.59 µM).

Compound Nc1ncnc2c1ncn2[C@@H]1C[C@H](CO)[C@H]1O (racemic) [Compound 7, (±)-9-[(1β,2α,3β)-2-hydroxy-3-hydroxymethylcyclobutan-1-yl]adenine] has an IC50 [2] of 6.97 µg/mL (≈ 29.6 µM), an IC50 [3] of 4 µg/mL (≈ 17 µM) and an IC50 [1] of 0.45 µg/mL (≈ 1.91 µM). For the same compound, the IC50 [4] was 1.64 µg/mL (≈ 6.97 µM) and the IC50 [5] was 1.84 µg/mL (≈ 7.82 µM).

For Nc1nc2c(ncn2[C@@H]2C[C@H](CO)[C@H]2O)c(=O)[nH]1 (racemic) [Compound 9, (±)-9-[(1β,2α,3β)-2-hydroxy-3-hydroxymethylcyclobutan-1-yl]guanine], the IC50 [2] was 10.9 µg/mL (≈ 43.4 µM), the IC50 [6] was 0.31 µg/mL (≈ 1.23 µM) and the IC50 [3] was 0.3 µg/mL (≈ 1.19 µM). The IC50 [1] was 0.95 µg/mL (≈ 3.78 µM), the IC50 [4] was 2.57 µg/mL (≈ 10.2 µM) and the IC50 [5] was 2.56 µg/mL (≈ 10.2 µM).

[N-]=[N+]=N[C@@H]1[C@@H](CO)C[C@H]1n1cc(F)c(=O)[nH]c1=O (racemic) [Compound 14, (±)-1-[(1β,2α,3β)-2-azido-3-hydroxymethylcyclobutan-1-yl]-5-fluoro-2,4(1H,3H)-pyrimidinedione] gave an IC50 (hepatitis B virus (HBV)) of 32 µg/mL (≈ 125 µM) and an IC50 [1] of 20 µg/mL (≈ 78.4 µM).

In the case of Cc1cn([C@@H]2C[C@H](CO)[C@H]2N)c(=O)[nH]c1=O (racemic) [Compound 17, (±)-1-[(1β,2α,3β)-2-amino-3-hydroxymethylcyclobutan-1-yl]-5-methyl-2,4(1H,3H)-pyrimidinedione], the IC50 (hepatitis B virus (HBV)) is reported as 35 µg/mL (≈ 155 µM).

Compound Nc1ncnc2c1ncn2[C@H]1C[C@@H](CO)C1 [Compound 2-1, 9-[(1β,3β)-3-hydroxymethylcyclobutan-1-yl]adenine] has an IC50 [2] of 100 µg/mL (≈ 456 µM), an IC50 (hepatitis B virus (HBV)) of 2 µg/mL (≈ 9.12 µM) and an IC50 [4] of 34.1 µg/mL (≈ 156 µM). For the same compound, the IC50 (AIDS virus (HIV)) was 0.3 µg/mL (≈ 1.37 µM) and the IC50 [5] was 63.1 µg/mL (≈ 288 µM).

Work on Nc1nc2c(ncn2[C@H]2C[C@@H](CO)C2)c(=O)[nH]1 [Compound 2-2, 9-[(1β,3β)-3-hydroxymethylcyclobutan-1-yl]guanine] yielded an IC50 [2] of 30 µg/mL (≈ 128 µM), an IC50 [6] of 3.6 µg/mL (≈ 15.3 µM) and an IC50 [3] of 1.6 µg/mL (≈ 6.8 µM). The IC50 [1] was 2.6 µg/mL (≈ 11.1 µM), the IC50 [4] was 11.5 µg/mL (≈ 48.9 µM) and the IC50 (AIDS virus (HIV)) was 10 µg/mL (≈ 42.5 µM). For the same compound, the IC50 [5] was 23.1 µg/mL (≈ 98.2 µM).
